Experimental data taken from publication PMC8565515, “Dasabuvir Inhibits Human Norovirus Infection in Human Intestinal Enteroids” (mSphere, 2021).
Where a name gives a salt, the structure may show the parent alone. Read-outs that look alike come from different tables or passages of the source.

Columns and labels:
[1] = system: VeroE6/TMPRSS2 cells; conditions: 20 h
[2] = system: J2 HIE monolayers; format: cell-based; conditions: human, 20 h, 50 μM
Method: Supplementary file : FIG S2 Cell viability and cytotoxicity of dasabuvir in J2 HIE monolayers. J2 HIE monolayers were treated with DSB at the indicated concentrations for 20 h. Cell viability or cytotoxicity was measured using CellTiter-Glo luminescent cell viability assay or the Cytotoxicity LDH assay kit-WST, respectively. Results were normalized to DMSO control. Values represent the mean ± SD (n = 7). Download FIG S2, TIF file, 0.8 MB.

[3] = system: SARS-CoV-2; format: cell-based; conditions: VeroE6/TMPRSS2 cells, 20 h
[4] = healthy volunteers, 1,000 mg twice a day [BID] for 10 days; read-out: maximum plasma concentration (Cmax); cited from earlier work
[5] = system: GII.4 HuNoV; assay: GII.4 HuNoV infection of HIE monolayers, viral genome equivalents by RT-qPCR; format: cell-based, human norovirus; conditions: for activity at 10 µM / EC50: Norovirus; for activity at 10 µM: 24 h, read-out: (%) HuNoV GEs
[6] = system: SARS-CoV-2 (WK-521); assay: SARS-CoV-2 infection of J2 HIE monolayers, viral GEs by RT-qPCR; conditions: 20 μM, 20 hpi
[7] = system: GII.3 HuNoV; assay: microbe, parasite or virus in culture; format: cell-based, human norovirus; conditions: Norovirus, read-out: EC50, HuNoV GEs
[8] = system: human rotavirus A (RVA) Wa strain; format: cell-based; conditions: 20 μM, J2 HIE monolayers, 20 hpi
[9] = system: HCV of genotype 1; set-up: method as in PMID 25534735; conditions: HCV genotype 1 subgenomic replicon; cited from earlier work
[10] = system: RdRp of Middle East respiratory syndrome coronavirus (MERS-CoV); conditions: cited from earlier work
[11] = system: J2 HIE monolayers; assay: Cytotoxicity by LDH assay in J2 HIE monolayers; conditions: for (%) Cytotoxicity: compound 10 μM, n = 1, LDH assay, J2 HIE monolayers infected with GII.4 HuNoV, 24 hpi, normalized to DMSO control
[12] = compound 10 μM, n = 1, J2 HIE monolayers, GII.4 HuNoV, 24 hpi, normalized to DMSO control

Compound	activity at 10 µM [5, 12]	(%) Cytotoxicity [11]	further results
COc1c(-c2ccc3cc(NS(C)(=O)=O)ccc3c2)cc(-n2ccc(=O)[nH]c2=O)cc1C(C)(C)C [Dasabuvir]	1.14%	-4.83%	cytotoxicity [1]: no cytotoxicity; reduction of cellular ATP (cell viability) [2]: 17%; effect on SARS-CoV-2 infection [3]: inhibition; Cmax [4]: ~5.61 µM; EC50 ([5]; J2 + GII.4, 20 hpi, read-out: EC50, HuNoV GEs): 11.7 µM; EC50 ([5]; J3 + GII.4, 20 hpi, read-out: EC50, HuNoV GEs): 12.4 µM; EC50 ([5]; range over GII.4 and GII.3 HuNoV in J2 and J3 HIEs (Fig. 2), read-out: EC50 values, HuNoV infection): 7.55 to 12.4 µM; fold decrease of SARS-CoV-2 infection (viral GEs) [6]: 26.9 fold; EC50 ([7]; J2 + GII.3, 20 hpi): 7.55 µM; EC50 ([7]; J3 + GII.3, 20 hpi): 9.85 µM; fold decrease of RVA infection (viral GEs) [8]: 2.75 fold; EC50 [9]: < 0.01 µM; inhibition of RdRp activity [10]: partially inhibits; increase of LDH release (cytotoxicity) ([11]; 50 μM, 20 h, uninfected J2 monolayers, compared to DMSO control): 10%
CCCCCCCCCC(=O)O[C@H]1CC[C@H]2[C@@H]3CCC4=CC(=O)CC[C@@H]4[C@H]3CC[C@]12C [Nandrolone decanoate]	58.9%	0.98%	
O=C1C[C@@H](c2ccc(O)cc2)Oc2cc(O)cc(O)c21 [Naringenin]	165%	1.14%	
COC[C@H]1C[C@@H](c2ncc(-c3ccc4c(c3)COc3cc5c(ccc6nc([C@@H]7CC[C@H](C)N7C(=O)[C@@H](NC(=O)OC)C(C)C)[nH]c65)cc3-4)[nH]2)N(C(=O)[C@H](NC(=O)OC)c2ccccc2)C1 [Velpatasvir]	59.8%	1.45%	
CC(C)OC(=O)C1=CN(C(=O)c2ccc(F)c(F)c2)CC(C)(C)c2c1[nH]c1ccccc21 [Turofexorate Isopropyl]	31.9%	0.86%	
COC(=O)c1cc(OC)c2c(c1-c1c(CO)cc(OC)c3c1OCO3)OCO2 [Bicyclol]	162%	0.26%	
C[C@@H]1O[C@@H](O[C@H]2[C@H](Oc3cc(O)c4c(c3)O[C@H](c3ccc(O)cc3)CC4=O)O[C@H](CO)[C@@H](O)[C@@H]2O)[C@H](O)[C@H](O)[C@H]1O [Naringin]	101%	5.67%	
Nc1nc2c(ncn2[C@@H]2O[C@H](CO)[C@@H](O)[C@H]2O)c(=O)[nH]1 [Guanosine]	32.3%	0.15%	
COc1cc2c(cc1Cc1cccc(Cl)c1F)c(=O)c(C(=O)O)cn2[C@H](CO)C(C)C [Elvitegravir]	164%	0.85%	
COC(=O)N[C@H](C(=O)NNC[C@H](O)[C@H](Cc1ccccc1)NC(=O)[C@@H](NC(=O)OC)C(C)(C)C)C(C)(C)C [Des(benzylpyridyl) Atazanavi]		2.40%	(%) HuNoV GEs [5, 12]: 101.09%
COc1ccnc(C[S+]([O-])c2nc3ccc(-n4cccc4)cc3[n-]2)c1C.[Na+] (stereo not drawn) [Ilaprazole sodium]		1.57%	(%) HuNoV GEs [5, 12]: 39.34%
C[C@H]1CC[C@@]2(O)C(C)(C)[C@@H]3CC[C@@]2(C)[C@H]1C3 [Patchouli alcohol]		1.24%	(%) HuNoV GEs [5, 12]: 83.87%
CN(C)[C@@H]1C(O)=C(C(N)=O)C(=O)[C@@]2(O)C(O)=C3C(=O)c4c(O)cccc4[C@@](C)(O)[C@H]3C[C@@H]12 [Tetracycline]	108%	0.09%	
O=S(=O)(CCC(F)=C(F)F)c1ncc(Cl)s1 [Fluensulfone]		-2.22%	(%) HuNoV GEs [5, 12]: 63.19%
CC1(C)CC[C@]2(C(=O)O)CC[C@]3(C)C(=CC[C@@H]4[C@@]5(C)CCC(=O)C(C)(C)[C@@H]5CC[C@]43C)[C@@H]2C1 [Oleanonic Acid]	11.9%	-3.05%	
Nc1ncnc2c1ncn2[C@@H]1O[C@H](COP(=O)(O)O)[C@@H](O)[C@H]1O.O [Adenosine 5'-monophosphate monohydrate]	34.4%	0.18%	
CC(C)OC(=O)[C@H](C)N[P@](=O)(CO[C@H](C)Cn1cnc2c(N)ncnc21)Oc1ccccc1 [Tenofovir alafenamide]		-0.20%	activity at 10 µM [5]: 55.2%
Cc1cc(/C=C/C#N)cc(C)c1Nc1ccnc(Nc2ccc(C#N)cc2)n1 [Rilpivirine]	117%	0.20%	

Compound	activity at 10 µM [5, 12]	(%) Cytotoxicity [11]	further results
C[C@H]1CO[C@@H]2Cn3cc(C(=O)NCc4ccc(F)cc4F)c(=O)c(O)c3C(=O)N12 [Cabotegravir]	54.1%	5.83%	
CN(C)C[C@H](O)Cn1c2ccc(Br)cc2c2cc(Br)ccc21 (racemic) [Wiskostatin]	22.9%	2.02%	
CC1(C)[C@@H](O[C@H]2O[C@H](C(=O)O)[C@@H](O)[C@H](O)[C@H]2O[C@@H]2O[C@H](C(=O)O)[C@@H](O)[C@H](O)[C@H]2O)CC[C@]2(C)[C@H]3C(=O)C=C4[C@@H]5C[C@@](C)(C(=O)O)CC[C@]5(C)CC[C@@]4(C)[C@]3(C)CC[C@@H]12 [Glycyrrhizin]	103%	4.28%	
CC1(C)CC[C@]2(C(=O)O)CC[C@]3(C)C(=CC[C@@H]4[C@@]5(C)CC[C@H](O)C(C)(C)[C@@H]5CC[C@]43C)[C@@H]2C1 [Oleanolic Acid]	82%	4.14%	
O=c1[nH]c(=O)n([C@H]2C[C@H](O)[C@@H](CO)O2)cc1/C=C/Br [Brivudine]	34.8%	4.68%	
COc1ccc(C2CNC(=O)C2)cc1OC1CCCC1 (stereo not drawn) [Rolipram]	78.7%	-0.46%	
CC(C)c1cc(Oc2c(Cl)cc(-n3nc(C#N)c(=O)[nH]c3=O)cc2Cl)n[nH]c1=O [MGL3196]	70.8%	-0.56%	
O=C(Nc1ncc([N+](=O)[O-])s1)c1ccccc1O [Tizoxanide]	40%	2.28%	
C=C1CC[C@@H]2[C@](C)(CO)[C@H](O)CC[C@@]2(C)[C@@H]1C/C=C1/C(=O)OC[C@H]1O [Andrographolide]	70.9%	-1.18%	
Vitamin E		-0.33%	(%) HuNoV GEs [5, 12]: 125.47%
Cc1cc(C#N)cc(C)c1Oc1nc(Nc2ccc(C#N)cc2)nc(N)c1Br [Etravirine]	28.8%	24.52%	
CC1(C)[C@@H](O[C@H]2O[C@H](C(=O)O)[C@@H](O)[C@H](O)[C@H]2O[C@@H]2O[C@H](C(=O)O)[C@@H](O)[C@H](O)[C@H]2O)CC[C@]2(C)[C@H]3C(=O)C=C4[C@@H]5C[C@@](C)(C(=O)O)CC[C@]5(C)CC[C@@]4(C)[C@]3(C)CC[C@@H]12.N.N [Diammonium Glycyrrhizinate]		0.23%	(%) HuNoV GEs [5, 12]: 22.61%
CC(N)C12CC3CC(CC(C3)C1)C2 (stereo not drawn) [Rimantadine hydrochloride]	40.9%	2.41%	
Cc1cnc(C(=O)N[C@H]2CCCCC/C=C\[C@@H]3C[C@@]3(C(=O)NS(=O)(=O)C3CC3)NC(=O)[C@@H]3C[C@@H](Oc4nc5ccccc5c5ccccc45)CN3C2=O)cn1 [Paritaprevir]	45%	-0.33%	
CC(C)OC(=O)[C@H](C)N[P@](=O)(OC[C@H]1O[C@@H](n2ccc(=O)[nH]c2=O)[C@](C)(F)[C@@H]1O)Oc1ccccc1 [Sofosbuvir]	22.6%	0.74%	
Cc1ccnc2c1NC(=O)c1cccnc1N2C1CC1 [Nevirapine]	56.6%	0.72%	
Cc1nc(N(C)C(=O)Cc2ccc(-c3ccccn3)cc2)sc1S(N)(=O)=O [Pritelivir]	64.5%	-1.63%	
